# Measurements as given in patent publication US11564924B2, “Pharmaceutical composition formed by combining pyridoxamine compound and thiamine compound” (RENASCIENCE CO., LTD., priority 2014, dated 2023).
# What was measured:
# [1] = test system: vitamin B1 in human whole blood; assay: In vitro effect on vitamin B1 concentration in human whole blood; conditions: human whole blood, 5, 50, 500 μg/mL, 37° C.
# Text: In addition, as described in Experiment Example 1 and Experiment Example 2, administration of a pyridoxamine compound increases not only the serum pyridoxamine concentration, but also the serum pyridoxal concentration, and thus, pyridoxamine and pyridoxal were both used as test substances for the investigation.
# Blood was collected from a human using EDTA⋅2K as an anticoagulant. In addition, pyridoxamine dihydrochloride (Sigma-Aldrich Japan) was used as pyridoxamine, and pyridoxal hydrochloride (Nacalai Tesque, Inc.) was used as pyridoxal. They were dissolved at 0.5, 5, and 50 mg/mL in physiological saline to prepare test solutions. 10 μL of each test solution was individually added per mL of the whole blood collected above (test samples). The final concentrations of each test substance in the test samples were 5, 50, 500 μg/mL. Further, a vehicle was prepared by adding 10 μl of physiological saline to 1 ml of the whole blood. The vehicle and the test samples were incubated at 37° C. for 1 hour or 16 hours and then immediately frozen. Measurement of the vitamin B1 concentrations in the whole blood before the start of the incubation to which neither the physiological saline nor any test solution was added (baseline: indicated by “BL” in FIG. 4), and in the vehicle and in each test sample after the incubation, was outsourced to SRL Inc., and the measurement was performed using LC/MS/MS.
# [2] = test system: vitamin B1; assay: Whole blood vitamin B1 amount in schizophrenia patients during drug administration (LC/MS/MS); format: in vivo, human
# Description: Measurement of the amount of vitamin B1 in whole blood (blood collection with heparin) was outsourced to SRL Inc., and the measurement was performed using LC/MS/MS.
# [3] = test system: Wernicke's encephalopathy; assay: Wernicke's encephalopathy findings (MRI of the brain, symptoms) during drug administration; format: in vivo, human
# Description: Immediately after the patient was suspected of having Wernicke's encephalopathy, oral administration of a thiamine compound (fursultiamine (Takeda Pharmaceutical Company Limited)) at a dose of 75 mg/day was initiated (administered once a day) and continued every day.
# Immediately after the patient was suspected of having Wernicke's encephalopathy, intravenous administration of a thiamine compound (fursultiamine (Takeda Pharmaceutical Company Limited)) (300 mg/day) was performed, and then (from 10 weeks after the start of drug administration), oral administration of the thiamine compound at a dose of 100 to 50 mg/day was continued.
SMILES,change in whole blood vitamin B1 concentration ([1]; 1 hour incubation),change in whole blood vitamin B1 concentration ([1]; 16 hours incubation),"whole blood vitamin B1 amount ([2]; patient ID No. 3, 12 weeks after the start of drug administration (6 weeks after start of fursultiamine 75 mg/day oral), pyridoxamine compound continued)","whole blood vitamin B1 amount ([2]; patient ID No. 6, 11 weeks after the start of drug administration (3 weeks after start of thiamine compound: 300 mg/day intravenous, then 100 to 50 mg/day oral))","symptom of Wernicke's encephalopathy ([3]; patient ID No. 3, 14 weeks after the start of drug administration (8 weeks after the start of the thiamine compound, 75 mg/day oral))","symptom of Wernicke's encephalopathy ([3]; patient ID No. 6, 11 weeks after the start of drug administration (3 weeks after the start of the thiamine compound))"
Cc1ncc(CO)c(C=O)c1O.Cl [pyridoxal hydrochloride],decrease in the vitamin B1 concentration in a manner dependent on the concentration of pyridoxal hydrochloride,decrease in the vitamin B1 concentration in a manner dependent on the concentration of pyridoxal hydrochloride,–,–,–,–
CC(=C(CCO)SSCC1CCCO1)N(C=O)Cc1cnc(C)nc1N (stereo in doubt) [fursultiamine],–,–,135 ng/mL,150 ng/mL,disappeared,disappeared
